Measured values published in patent US12331022B2, “Spiropiperidine allosteric modulators of nicotinic acetylcholine receptors” (Merck Sharp & Dohme LLC, priority 2019, dated 2025).
Where two headings read alike, the source gives them in different places.

Target: T1, human α7 nAChR (Homo sapiens, UniProt P36544)
T1 construct: host or cells: HEK
Test: Automated patch-clamp electrophysiology functional assay (Assay A)
Format: cell-based
Conditions: HEK cell line stably expressing human RIC-3 and human α7, IonFlux HT whole-cell population patch, with or without 40 μM acetylcholine
Description: The α7 nAChR positive allosteric modulator (PAM) activity of the present compounds may be tested using assays known in the art. The α7 nAChR PAMs described herein have activities in an automated patch-clamp electrophysiology functional assay as described in the examples. The assay was performed using the IonFlux HT in a whole-cell, population patch configuration. See Golden et al. Assay Drug Dev. Technol. (2011) 9:608-619. The compounds were assessed for their ability to modulate the function of the human α7 nAChR stably expressed in a HEK cell line both in the presence, and in the absence of the natural α7 agonist acetylcholine. By performing a series of such measurements at different concentrations, the effective concentration of the α7 nAChR PAMs (EC50) was determined. See Spencer et al. Assay Drug Dev. Technol. (2012) 10:313-324.
Direct activation of α7 (agonism), and potentiation of acetylcholine-evoked α7 currents was determined as follows:
Automated patch-clamp electrophysiology was performed using the IonFlux HT (Fluxion Biosciences Inc., San Francisco, CA) in the whole-cell, population patch configuration. Test compounds were assessed for their ability to modulate the function of the α7 nicotinic acetylcholine receptor both in the presence, and in the absence of the natural α7 agonist acetylcholine. A HEK cell line stably expressing both human RIC-3 and human α7 (PrecisION hnAChR α7/RIC-3, Eurofins Pharma, St. Charles, MO) was cultured in 175 cm^2 triple-layer tissue culture flasks to no more than 90% confluency in DMEM/F-12 growth media supplemented with 10% heat-inactivated fetal bovine serum, 1% non-essential amino acids, 0.625 μg/mL Puromycin, and 400 μg/mL Geneticin. Immediately prior to assay, cells were detached by first aspirating growth media, rinsing with Dulbecco's phosphate buffered saline, and then adding 10 mL of Accutase (Innovative Cell Technologies, San Diego, CA) to the flask and then incubating at 37° C. for 5 minutes. Detached cells were then recovered by the addition of 40 mL of CHO-serum-free media supplemented with 25 mM HEPES, and rocked gently in a 50 mL conical tube for 20 minutes prior to patch-clamp assay. After recovery, cells were pelleted by centrifugation at 1,000 RPM for 1 minute in a compact bench top centrifuge; recovery media was aspirated and cells were resuspended in external recording solution (150 mM NaCl, 5 mM KCl, 2 mM CaCl2, 1 mM MgCl2, 10 mM HEPES, 12 mM dextrose) to a density of 5.0×10^6 cells/mL. The cell suspension was added to the cell inlet wells on an IonFlux HT population patch plate which had previously been rinsed and primed with deionized H2O. Test compounds were serially diluted in DMSO and then resuspended to the final test concentration in external recording solution, with, or without 40 μM acetylcholine added to the external recording solution; test compounds were then transferred to the IonFlux HT population patch plate. Internal recording solution (110 mM TrisPO4, 28 mM TrisBase, 0.1 mM CaCl2, 2 mM MgCl2, 11 mM EGTA, 4 mM MgATP) was added to the internal recording solution inlet wells on the IonFlux HT patch plate previously loaded with cells and test compounds, and the plate loaded into the IonFlux HT instrument. A protocol was executed on the IonFlux HT to trap the cells, break into the cells, and establish the whole-cell recording configuration; cells were voltage-clamped at a holding potential of −60 mV for the duration of the experiment, all experiments were conducted at room temperature, and the IonFlux HT injection pressure was 8 psi for solution applications. Upon establishing the whole-cell configuration, external recording solution was perfused into the recording chambers for 120 seconds and then 40 μM acetylcholine was applied for 1 second and immediately washed off with external recording solution for 60 seconds. […]

T1 sequence (P36544 23-502): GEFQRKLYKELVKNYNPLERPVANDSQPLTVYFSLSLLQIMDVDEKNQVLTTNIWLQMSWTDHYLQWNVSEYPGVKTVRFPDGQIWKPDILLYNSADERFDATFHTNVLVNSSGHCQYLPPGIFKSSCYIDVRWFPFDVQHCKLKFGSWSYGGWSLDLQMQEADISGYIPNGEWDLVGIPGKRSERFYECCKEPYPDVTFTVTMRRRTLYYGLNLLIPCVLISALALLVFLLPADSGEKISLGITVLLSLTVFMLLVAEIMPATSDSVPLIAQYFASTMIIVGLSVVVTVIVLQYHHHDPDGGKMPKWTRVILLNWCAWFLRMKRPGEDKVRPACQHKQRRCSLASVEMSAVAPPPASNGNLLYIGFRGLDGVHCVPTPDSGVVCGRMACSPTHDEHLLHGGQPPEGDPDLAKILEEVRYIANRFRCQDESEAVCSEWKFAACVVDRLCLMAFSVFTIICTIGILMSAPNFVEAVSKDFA

Compound	EC50 (read-out: α7 nAChR EC50) [nM]	EC50 (read-out: α7 nAChR Potency) [nM]
NS(=O)(=O)N1CCC2(CC1)CC2COc1ccc(F)cc1C(F)(F)F (single isomer, unassigned) [Example A7, 1-{[4-fluoro-2-(trifluoromethyl)phenoxy]methyl}-6-azaspiro[2.5]octane-6-sulfonamide]	1200	500 to 5000
NS(=O)(=O)N1CCC2(CC1)C(COc1cc(F)ccc1C(F)(F)F)C2(F)F (single isomer, unassigned) [Example A8, 1,1-difluoro-2-{[5-fluoro-2-(trifluoromethyl)phenoxy]methyl}-6-azaspiro[2.5]octane-6-sulfonamide]	89	≤ 100
NS(=O)(=O)N1CCC2(CC1)CC2COc1ccccc1OC(F)F (single isomer, unassigned) [Example A9, 1-{[2-(difluoromethoxy)phenoxy]methyl}-6-azaspiro[2.5]octane-6-sulfonamide]	650	500 to 5000
NS(=O)(=O)N1CCC2(CC1)C(COc1ccc(F)cc1C(F)(F)F)C2(F)F (single isomer, unassigned) [Example A10, 1,1-difluoro-2-{[4-fluoro-2-(trifluoromethyl)phenoxy]methyl}-6-azaspiro[2.5]octane-6-sulfonamide]	1500	500 to 5000
Cn1nc(C(F)(F)F)cc1OCC1C(F)(F)C12CCN(S(N)(=O)=O)CC2 (single isomer, unassigned) [Example A11, 1,1-difluoro-2-({[1-methyl-3-(trifluoromethyl)-1H-pyrazol-5-yl]oxy}methyl)-6-azaspiro[2.5]octane-6-sulfonamide]	90	≤ 100
Cn1nc(C(F)(F)F)cc1OCC1C(F)(F)C12CCN(S(N)(=O)=O)CC2 (single isomer, unassigned) [Example A12, 1,1-difluoro-2-({[1-methyl-3-(trifluoromethyl)-1H-pyrazol-5-yl]oxy}methyl)-6-azaspiro[2.5]octane-6-sulfonamide]	4200	500 to 5000
NS(=O)(=O)N1CCC2(CC1)CC2COc1cc(F)ccc1C(F)(F)F (single isomer, unassigned) [Example A15, 1-{[5-fluoro-2-(trifluoromethyl)phenoxy]methyl}-6-azaspiro[2.5]octane-6-sulfonamide]	470	100 to 500
NS(=O)(=O)N1CCC2(CC1)C(COc1noc(-c3ccccc3)n1)C2(F)F (single isomer, unassigned) [Example A21, 1,1-difluoro-2-{[(5-phenyl-1,2,4-oxadiazol-3-yl)oxy]methyl}-6-azaspiro[2.5]octane-6-sulfonamide]	1100	500 to 5000
NS(=O)(=O)N1CCC2(CC1)C(COc1cccc(OC(F)F)c1)C2(F)F (single isomer, unassigned) [Example A28, 2-{[3-(difluoromethoxy)phenoxy]methyl}-1,1-difluoro-6-azaspiro[2.5]octane-6-sulfonamide]	37	≤ 100
NS(=O)(=O)N1CCC2(CC1)C(COc1cccc(OC(F)F)c1)C2(F)F (single isomer, unassigned) [Example A29, 2-{[3-(difluoromethoxy)phenoxy]methyl}-1,1-difluoro-6-azaspiro[2.5]octane-6-sulfonamide]	310	100 to 500
NS(=O)(=O)N1CCC2(CC1)C(COc1cccc(OCC(F)(F)F)c1)C2(F)F (single isomer, unassigned) [Example A30, 1,1-difluoro-2-{[3-(2,2,2-trifluoroethoxy)phenoxy]methyl}-6-azaspiro[2.5]octane-6-sulfonamide]	58	≤ 100
COc1ccc(F)c(OCC2C(F)(F)C23CCN(S(N)(=O)=O)CC3)c1 (single isomer, unassigned) [Example A31, 1,1-difluoro-2-[(2-fluoro-5-methoxyphenoxy)methyl]-6-azaspiro[2.5]octane-6-sulfonamide]	–	≤ 100
NS(=O)(=O)N1CCC2(CC1)C(COc1ccnc(OCC(F)(F)F)c1)C2(F)F (single isomer, unassigned) [Example A33, 1,1-difluoro-2-({[2-(2,2,2-trifluoroethoxy)pyridin-4-yl]oxy}methyl)-6-azaspiro[2.5]octane-6-sulfonamide]	20	≤ 100
NS(=O)(=O)N1CCC2(CC1)C(COc1ccnc(OCC(F)(F)F)c1)C2(F)F (single isomer, unassigned) [Example A34, 1,1-difluoro-2-({[2-(2,2,2-trifluoroethoxy)pyridin-4-yl]oxy}methyl)-6-azaspiro[2.5]octane-6-sulfonamide]	550	500 to 5000
NS(=O)(=O)N1CCC2(CC1)C(COc1cccnc1OCC(F)(F)F)C2(F)F (single isomer, unassigned) [Example A35, 1,1-difluoro-2-({[2-(2,2,2-trifluoroethoxy)pyridin-3-yl]oxy}methyl)-6-azaspiro[2.5]octane-6-sulfonamide]	540	500 to 5000
NS(=O)(=O)N1CCC2(CC1)C(COc1cccnc1OCC(F)(F)F)C2(F)F (single isomer, unassigned) [Example A36, 1,1-difluoro-2-({[2-(2,2,2-trifluoroethoxy)pyridin-3-yl]oxy}methyl)-6-azaspiro[2.5]octane-6-sulfonamide]	1200	500 to 5000
NS(=O)(=O)N1CCC2(CC1)C(COc1cccc(OCC(F)(F)F)n1)C2(F)F (single isomer, unassigned) [Example A40, 1,1-difluoro-2-({[6-(2,2,2-trifluoroethoxy)pyridin-2-yl]oxy}methyl)-6-azaspiro[2.5]octane-6-sulfonamide]	19	≤ 100
NS(=O)(=O)N1CCC2(CC1)C(COc1cccc(OCC(F)(F)F)n1)C2(F)F (single isomer, unassigned) [Example A41, 1,1-difluoro-2-({[6-(2,2,2-trifluoroethoxy)pyridin-2-yl]oxy}methyl)-6-azaspiro[2.5]octane-6-sulfonamide]	–	100 to 500
NS(=O)(=O)N1CCC2(CC1)C(CSc1ccc(C(F)(F)F)cc1)C2(F)F (single isomer, unassigned) [Example A44, 1,1-difluoro-2-({[4-(trifluoromethyl)phenyl]sulfanyl}methyl)-6-azaspiro[2.5]octane-6-sulfonamide]	150	100 to 500
NS(=O)(=O)N1CCC2(CC1)C(CSc1nnnn1-c1ccccc1)C2(F)F (single isomer, unassigned) [Example A61, 1,1-difluoro-2-{[(1-phenyl-1H-tetrazol-5-yl)sulfanyl]methyl}-6-azaspiro[2.5]octane-6-sulfonamide]	1300	500 to 5000
NS(=O)(=O)N1CCC2(CC1)C(CSc1nnnn1-c1ccccc1)C2(F)F (single isomer, unassigned) [Example A62, 1,1-difluoro-2-{[(1-phenyl-1H-tetrazol-5-yl)sulfanyl]methyl}-6-azaspiro[2.5]octane-6-sulfonamide]	2000	500 to 5000
NS(=O)(=O)N1CCC2(CC1)CC2COc1ccnc(OC(F)F)c1 (centres unmarked) [Example 1, 1-({[2-(Difluoromethoxy)pyridin-4-yl]oxy}methyl)-6-azaspiro[2.5]octane-6-sulfonamide]	730	500 to 5000
NS(=O)(=O)N1CCC2(CC1)C[C@H]2COc1noc(-c2ccccc2)n1 [Example 4, (1R)-1-{[(5-Phenyl-1,2,4-oxadiazol-3-yl)oxy]methyl}-6-azaspiro[2.5]octane-6-sulfonamide]	580	500 to 5000
